Where two headings read alike, the source gives them in different places.
Key:
Assay type in all cases: cell-based
[1] = test system: tumor cells; assay: Mitochondrial membrane potential, JC-1 (read-out 48 h); conditions: JC-1, 48 h
Experimental: (§1) D) Mitochondrial Membrane Potential
(§2) This assay is performed in 96 well tissue culture plates. Appropriate number of cells (adherent cells: 3-5*10^3, suspension cells: 8-10*10^3) are being seeded out in 80 μl complete medium. Adherent cells are incubated for 24 h for proper spreading out before addition of test compounds while suspension cells are immediately treated with test compounds after seeding out. The test compounds are added in 20 μl complete medium containing max 5% DMSO. […] After 24 h or 48 h incubation at culture conditions, 10 μl medium containing JC-1 (Molecular Probes, T-3168) at 2-5 μg/ml are added to each well. The assay plates are then further incubated for 30 minutes and subsequently analyzed with a standard inverted fluorescence microscope by using the FITC and TRITC filters.
(§3) The readout allows the determination of the fraction of cells which show a dissipation of the mitochondrial membrane potential strongly indicating an apoptotic cell death as a function of the treatment. The scores A, B, C and D are explained at the end of the Table.

[2] = as above; conditions: PBL, JC-1, 48 h
Experimental: as §1, §2, §3

[3] = test system: tumor cells; assay: Hoechst 33342 nuclear staining (48 h read-out)
Experimental: (§4) A) Hoechst 33342 Nuclear Staining
(§5) This assay is performed in 96 well tissue culture plates. Appropriate number of cells (adherent cells: 3-5*10^3, suspension cells: 8-10*10^3) are being seeded out in 80 μl complete medium. Adherent cells are incubated for 24 h for proper spreading out before addition of test compounds while suspension cells are immediately treated with test compounds after seeding out. The test compounds are added in 20 μl complete medium containing max 5% DMSO. The final compound concentrations in the assays are in the range of 0.001 μM-10 μM. After 24 h or 48 h incubation at culture conditions, 10 μl medium containing Hoechst 33342 dye (Sigma B-2261) at 2-5 μg/ml are added to each well. The assay plates are then further incubated for 30 minutes and subsequently analyzed with a standard inverted fluorescence microscope.
(§6) The readout allows the determination of the fraction of apoptotic nuclei as well as other morphological criteria specific for apoptosis as a function of the treatment. The scores A, B, C and D are explained at the end of the Table.

[4] = Hoechst 33342 nuclear staining (48 h read-out)
Experimental: as §4, §5, §6

[5] = test system: tumor cells; assay: MTS proliferation assay (72 h read-out)
Experimental: (§7) B) MTS Proliferation Assay
(§8) The assay is performed in 96 well tissue culture plates. The cells (range: 1.5*10^3-10^4) are seeded out in 80 μl complete medium 24 h prior to compound treatment. The test compounds are added in 20 μl complete medium containing max 5% DMSO. The final compound concentrations in the assays are in the range of 0.001 μM-10 μM. The assay plates are incubated for 72 h at culture conditions. The MTS reagent is prepared according to the manufacturer's protocol (Promega G1111). 20 μl MTS reagent are added to each well; the assay plates are quickly spun and incubated for another 3 h at culture conditions. Subsequently, the plates are shortly shaked and absorption measured with a microplate-reader at 492 nm. The scores A, B, C and D are explained at the end of the Table.

[6] = MTS proliferation assay (72 h read-out); conditions: MRC5 cells
Experimental: as §7, §8

[7] = HeLa cells, read-out: Mitochondrial membrane potential (read-out 48 h) HeLa
[8] = Jily cells, read-out: Mitochondrial membrane potential (read-out 48 h) Jily
[9] = Jurkat cells, read-out: Mitochondrial membrane potential (read-out 48 h) Jurkat
[10] = MCF7 cells, read-out: Mitochondrial membrane potential (read-out 48 h) MCF7
[11] = HeLa cells, read-out: Hoechst 33342 nuclear staining EC50, HeLa
[12] = Jily cells, read-out: Hoechst 33342 nuclear staining EC50, Jily
[13] = Jurkat cells, read-out: Hoechst 33342 nuclear staining EC50, Jurkat
[14] = MRC5 cells, read-out: Hoechst 33342 nuclear staining EC50, MRC5
[15] = PBL, read-out: Hoechst 33342 nuclear staining EC50, PBL
[16] = HT1080 cells, read-out: MTS proliferation assay IC50, HT1080
[17] = HeLa cells, read-out: MTS proliferation assay IC50, HeLa
[18] = Jily cells, read-out: MTS proliferation assay IC50, Jily
[19] = Jurkat cells, read-out: MTS proliferation assay IC50, Jurkat

| Structure (SMILES) | EC50 [1, 7] [µM] | EC50 [1, 8] [µM] | EC50 [1, 9] [µM] | EC50 [1, 10] [µM] | EC50 [2] [µM] | EC50 [3, 11] [µM] | EC50 [3, 12] [µM] | EC50 [3, 13] [µM] | EC50 [4, 14] [µM] | EC50 [4, 15] [µM] | IC50 [5, 16] [µM] | IC50 [5, 17] [µM] | IC50 [5, 18] [µM] | IC50 [5, 19] [µM] | IC50 [6] [µM] |
| --- | --- | --- | --- | --- | --- | --- | --- | --- | --- | --- | --- | --- | --- | --- | --- |
| CCOc1ccc(-n2cccc2)cc1C(=O)c1oc2ccc(Cl)cc2c1N [Example 22] | 0.1 to 1 | 0.1 to 1 | 0.1 to 1 | > 1 | > 1 | 0.1 to 1 | 0.1 to 1 | 0.1 to 1 | 0.1 to 1 | > 1 | 0.1 to 1 | 0.1 to 1 | 0.1 to 1 | 0.1 to 1 | 0.1 to 1 |
| Nc1c(C(=O)c2cc(F)ccc2N2CCCCC2)oc2ccc(Cl)cc12 [Example 101] | 0.1 to 1 | 0.01 to 0.1 | 0.01 to 0.1 | 0.1 to 1 | > 1 | 0.1 to 1 | 0.1 to 1 | 0.01 to 0.1 | 0.1 to 1 | > 1 | 0.01 to 0.1 | 0.1 to 1 | 0.1 to 1 | 0.01 to 0.1 | 0.1 to 1 |
| CCOc1ccc(F)cc1C(=O)c1cc2cc(OC(C)C)ccc2o1 [Example 68] | > 1 | 0.1 to 1 | 0.1 to 1 | > 1 | > 1 | 0.1 to 1 | 0.1 to 1 | 0.1 to 1 | 0.1 to 1 | > 1 | 0.01 to 0.1 | 0.01 to 0.1 | 0.01 to 0.1 |  | 0.01 to 0.1 |
| COc1ccc2oc(C(=O)c3cccnc3N3CCCCC3C)cc2c1 (stereo not shown) [Example 89] | 0.1 to 1 | 0.1 to 1 | 0.1 to 1 | 0.1 to 1 | > 1 | 0.1 to 1 | 0.1 to 1 | 0.1 to 1 | 0.1 to 1 | > 1 | 0.1 to 1 | 0.1 to 1 | 0.01 to 0.1 | 0.01 to 0.1 | 0.1 to 1 |
| CCOc1ccc(F)cc1C(=O)c1cc2cc(OCCN(C)C)ccc2o1 [Example 71] | > 1 | > 1 | > 1 | > 1 | > 1 | > 1 | > 1 | > 1 | > 1 | > 1 | > 1 | > 1 | > 1 |  | > 1 |
| COc1ccc2oc(C(=O)c3cc(F)ccc3N3CCCCC3)cc2c1 [Example 95] |  |  |  |  |  |  |  |  |  |  | 0.01 to 0.1 | 0.01 to 0.1 | 0.01 to 0.1 | 0.01 to 0.1 | 0.01 to 0.1 |
| O=C(c1cc2cc(OCc3ccccc3)ccc2o1)c1cc(F)ccc1N1CCOCC1 [Example 106] | > 1 | > 1 | > 1 | > 1 | > 1 | > 1 | > 1 | > 1 | > 1 | > 1 | > 1 | > 1 | > 1 | > 1 | > 1 |
| O=C(c1cc2cc(O)ccc2o1)c1cc(F)ccc1N1CC=CCC1 [Example 112] | 0.01 to 0.1 | 0.01 to 0.1 | 0.01 to 0.1 | 0.01 to 0.1 | > 1 | 0.01 to 0.1 | 0.01 to 0.1 | 0.01 to 0.1 | 0.01 to 0.1 | > 1 |  |  |  |  |  |
| CCOc1ccc2oc(C(=O)c3cc(F)ccc3N3CC=CCC3)cc2c1 [Example 111] | 0.01 to 0.1 | < 0.01 | < 0.01 | 0.01 to 0.1 | > 1 | 0.01 to 0.1 | < 0.01 | < 0.01 | 0.01 to 0.1 | > 1 |  |  |  |  |  |
| Nc1c(C(=O)c2cc(F)ccc2N2CCOCC2)sc2ncccc12 [Example 125] | > 1 | 0.1 to 1 | 0.1 to 1 | > 1 |  | > 1 |  | > 1 | > 1 |  | > 1 | > 1 | 0.1 to 1 | 0.1 to 1 |  |

— patent US8486996B2, “Aroylfuranes and aroylthiophenes” (Basilea Pharmaceutica AG, priority 2006, dated 2013)
